From patent US20060240095A1, “Pharmaceutical composition comprising a combination of metformin and a statin” (priority 2003, published 2006)
Read-outs that look alike come from different tables or passages of the source.

Columns and labels:
[1] = cited from earlier work
[2] = cited from earlier work; remark: listed apart in the source
[3] = system: Zucker obese (fa/fa) rats; conditions: serum, lovastatin 1 mg/kg/day and/or metformin 50 mg/kg twice a day p.o.
[4] = system: C57BL/Ks J Rj-db (db/db) mice; experiment: Serum biomarkers in male db/db mice, simvastatin, metformin and combination per os for 5 days; assay type: in vivo, mouse; conditions: oral once daily
Procedure: Male 12 weeks old C57BL/Ks J Rj-db (db/db) mice (Janvier, France), weighing in the target range of 30 to 50 g, were used in the study. They were housed 5 per cage in a temperature (19.5-24.5° C.) and relative humidity (45-65%) controlled room with a 12-h light/dark cycle, with ad libitum access to filtered tap-water and irradiated pelleted laboratory chow (ref. A04, SAFE, France) throughout the study. After acclimatization, they were randomized into groups of 10 according to homogeneous glycaemia:
Group 2: Metformin 150 mg/kg
The mice were given the treatment orally once daily for 5 consecutive days at constant time.

ZUCKER fa/fa rats = experiment: Serum biomarkers in Zucker obese (fa/fa) rats, simvastatin, metformin and combination per os for 5 days; conditions: oral
[5] = pH of 7.0; cited from earlier work
[6] = water (distilled water for atorvastatin), in words
[7] = T0 (three days before beginning of treatment)
[8] = T5 (five days after beginning of treatment)
[9] = T0 (three days before treatment), metformin 150 mg/kg and/or simvastatin 30 mg/kg
[10] = T5 (five days after beginning of treatment), metformin 150 mg/kg and/or simvastatin 30 mg/kg
[11] = T0 (three days before treatment), simvastatin 0.5 mg/kg and/or metformin 50 mg/kg twice a day
[12] = T5 (five days after beginning of treatment), simvastatin 0.5 mg/kg and/or metformin 50 mg/kg twice a day
[13] = T0 (three days before treatment), simvastatin 300 mg/kg alone or with metformin 150 mg/kg
[14] = T0 (three days before treatment), simvastatin alone or with metformin 150 mg/kg
[15] = T5 (five days after beginning of treatment), simvastatin 300 mg/kg alone or with metformin 150 mg/kg
[16] = T5 (five days after beginning of treatment), simvastatin alone or with metformin 150 mg/kg
[17] = T0 (three days before treatment), simvastatin 1 mg/kg alone or with metformin 50 mg/kg twice a day
[18] = T5 (five days after beginning of treatment), simvastatin 1 mg/kg alone or with metformin 50 mg/kg twice a day

## COCc1c(C(C)C)nc(C(C)C)c(/C=C/[C@@H](O)C[C@@H](O)CC(=O)O)c1-c1ccc(F)cc1 [Cerivastatin]
[1]; [6]
  solubility in water: soluble
[2]; oral administration with food
  effect of food on absorption: not sensitive to a food effect

## CC(C)n1c(/C=C/C(O)CC(O)CC(=O)O)c(-c2ccc(F)cc2)c2ccccc21 (stereo not drawn) [Fluvastatin]
[1]; [6]
  solubility in water: soluble
[2]; following oral administration
  time to peak concentrations: less than 1 hour

## CC[C@H](C)C(=O)O[C@H]1C[C@@H](C)C=C2C=C[C@H](C)[C@H](CC[C@@H]3C[C@@H](O)CC(=O)O3)[C@H]21 [Lovastatin]
[1]; [6]
  solubility in water: insoluble
[3]; [7]
  Glucose: 7.88 mM
  HDL C: 2.00 mM
  Insulin: 0.35 nM
  Total Cholesterol: 2.38 mM
  Triglycerides: 4.18 mM
[3]; [8]
  Glucose: 8.21 mM
  HDL C: 2.16 mM
  Insulin: 0.39 nM
  Total Cholesterol: 2.54 mM
  Triglycerides: 4.79 mM

## CN(C)C(=N)N=C(N)N [Metformin]
[4]; [9]
  Glucose: 37.00 mM
  Insulin: 4.60 nM
  NEFA: 0.654 mM
  Total Cholesterol: 3.07 mM
  Triglycerides: 1.30 mM
[4]; [10]
  Glucose: 23.03 mM
  Insulin: 2.82 nM
  NEFA: 0.798 mM
  Total Cholesterol: 3.63 mM
  Triglycerides: 1.34 mM
ZUCKER fa/fa rats; [11]
  Glucose: 6.69 mM
  HDL C: 2.30 mM
  Insulin: 0.63 nM
  Total Cholesterol: 2.47 mM
  Triglycerides: 4.18 mM
ZUCKER fa/fa rats; [12]
  Glucose: 9.23 mM
  HDL C: 2.16 mM
  Insulin: 0.71 nM
  Total Cholesterol: 2.32 mM
  Triglycerides: 5.12 mM
[3]; [7]
  Glucose: 8.27 mM
  HDL C: 2.08 mM
  Insulin: 0.34 nM
  Total Cholesterol: 2.55 mM
  Triglycerides: 4.08 mM
[3]; [8]
  Glucose: 7.73 mM
  HDL C: 2.25 mM
  Insulin: 0.38 nM
  Total Cholesterol: 2.72 mM
  Triglycerides: 5.17 mM

## CC[C@H](C)C(=O)O[C@H]1C[C@H](O)C=C2C=C[C@H](C)[C@H](CC[C@@H](O)C[C@@H](O)CC(=O)O)[C@H]21 [Pravastatin]
[1]; methanol and water
  solubility in water: > 300 mg/mL
[5]
  partition coefficient (octanol/water): 0.59

## CCC(C)(C)C(=O)O[C@H]1C[C@@H](C)C=C2C=C[C@H](C)[C@H](CC[C@@H]3C[C@@H](O)CC(=O)O3)[C@H]21 [Simvastatin]
[4]; [9]
  Glucose: 36.27 mM
  Insulin: 4.60 nM
  NEFA: 0.646 mM
  Total Cholesterol: 2.96 mM
  Triglycerides: 1.34 mM
[4]; [13]
  Glucose: 36.91 mM
  Total Cholesterol: 2.95 mM
[4]; [14]
  Insulin: 4.86 nM
  NEFA: 0.639 mM
  Triglycerides: 1.44 mM
[4]; [10]
  Glucose: 25.95 mM
  Insulin: 2.74 nM
  NEFA: 0.897 mM
  Total Cholesterol: 3.33 mM
  Triglycerides: 1.49 mM
[4]; [15]
  Glucose: 21.18 mM
  Total Cholesterol: 2.87 mM
[4]; [16]
  Insulin: 2.37 nM
  NEFA: 0.785 mM
  Triglycerides: 0.78 mM
ZUCKER fa/fa rats; [11]
  Glucose: 6.63 mM
  HDL C: 2.32 mM
  Insulin: 0.55 nM
  Total Cholesterol: 2.46 mM
  Triglycerides: 4.61 mM
ZUCKER fa/fa rats; [17]
  Glucose: 7.08 mM
  HDL C: 2.34 mM
  Insulin: 0.63 nM
  Total Cholesterol: 2.48 mM
  Triglycerides: 4.67 mM
ZUCKER fa/fa rats; [12]
  Glucose: 9.44 mM
  HDL C: 2.32 mM
  Insulin: 0.76 nM
  Total Cholesterol: 2.46 mM
  Triglycerides: 5.23 mM
ZUCKER fa/fa rats; [18]
  Glucose: 8.35 mM
  HDL C: 2.43 mM
  Insulin: 0.67 nM
  Total Cholesterol: 2.60 mM
  Triglycerides: 5.89 mM
